This note sets out measurements from US7649007B2, “Oxazolidine derivatives as PR modulators” (Wyeth LLC, priority 2006, dated 2010).

Data set [1] addresses T1, progesterone receptor (alkaline phosphatase activity in T47D cells) (Homo sapiens, UniProt P06401).
T1 construct: determining a compound's effect on alkaline phosphatase activity in T47D cells; endogenous in cells; host or cells: T47D cells
T1 sequence (P06401 1-933): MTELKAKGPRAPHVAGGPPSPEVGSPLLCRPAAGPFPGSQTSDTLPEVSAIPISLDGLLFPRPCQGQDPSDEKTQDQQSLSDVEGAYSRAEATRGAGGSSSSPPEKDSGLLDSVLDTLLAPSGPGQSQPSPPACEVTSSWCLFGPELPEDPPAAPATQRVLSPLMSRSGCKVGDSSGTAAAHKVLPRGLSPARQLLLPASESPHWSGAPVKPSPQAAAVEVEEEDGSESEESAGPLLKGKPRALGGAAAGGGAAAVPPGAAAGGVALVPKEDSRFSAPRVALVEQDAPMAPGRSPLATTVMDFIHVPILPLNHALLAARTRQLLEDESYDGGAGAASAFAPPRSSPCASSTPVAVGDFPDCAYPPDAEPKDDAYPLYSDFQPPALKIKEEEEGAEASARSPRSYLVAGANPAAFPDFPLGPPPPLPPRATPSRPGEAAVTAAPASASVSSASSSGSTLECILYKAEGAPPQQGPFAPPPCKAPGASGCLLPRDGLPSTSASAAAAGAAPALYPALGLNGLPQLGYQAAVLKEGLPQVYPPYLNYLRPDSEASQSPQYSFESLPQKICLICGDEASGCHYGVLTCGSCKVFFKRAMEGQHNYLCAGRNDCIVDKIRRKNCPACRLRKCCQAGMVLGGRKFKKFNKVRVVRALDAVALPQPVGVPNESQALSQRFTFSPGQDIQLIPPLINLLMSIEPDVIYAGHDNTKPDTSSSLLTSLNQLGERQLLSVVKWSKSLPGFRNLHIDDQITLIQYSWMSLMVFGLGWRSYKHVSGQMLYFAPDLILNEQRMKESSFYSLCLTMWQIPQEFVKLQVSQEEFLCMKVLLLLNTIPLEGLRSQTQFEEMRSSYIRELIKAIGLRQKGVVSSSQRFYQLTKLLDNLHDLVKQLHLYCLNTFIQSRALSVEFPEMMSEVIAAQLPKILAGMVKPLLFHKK
In words: Effects of progestins and antiprogestins on alkaline phosphatase activity in T47D cells (antagonist mode). The settings on record: in the presence of 1 nM progesterone; for IC50: 24 h. It counts as cell-based. As to the method: (1) Effects of Progestins and Antiprogestins on Alkaline Phosphatase Activity in T47D Cells.
PURPOSE: To identify progestins or antiprogestins by determining a compound's effect on alkaline phosphatase activity in T47D cells.
Culture medium: • DMEM:F12 (1:1) (GIBCO, BRL) supplemented with 5% (v/v) charcoal stripped fetal bovine serum (not heat-inactivated), 100 U/mL penicillin, 100 μg/mL streptomycin, and 2 mM the GlutaMax™ reagent (GIBCO, BRL).
Alkaline phosphatase assay buffer: • I. 0.1M Tris-HCl, pH 9.8, containing 0.2% the Triton® X-100 reagent • II. 0.1M Tris-HCl, pH 9.8, containing 4 mM p-nitrophenyl phosphate (Sigma). B. Cell Culture and Treatment:
Frozen T47D cells were thawed in a 37° C. water bath and diluted to 280,000 cells/mL in culture medium. To each well in a 96-well plate (Falcon, Becton Dickinson Labware), 180 μL of diluted cell suspension was added.
Twenty μL of reference or test compounds diluted in the culture medium was then added to each well. When testing for progestin antagonist activity, reference antiprogestins or test compounds were added in the presence of 1 nM progesterone. The cells were incubated at 37° C. in a 5% CO2/humidified atmosphere for 24 h.
NOTE: For high throughput screening, one concentration of each compound was tested at 0.3 μg/mL. Based on an average molecular weight of 300 g/mol for the compounds in the library, the concentration was approximately 1 μM. Subsequently, active compounds were tested in dose response assays to determine EC50 and IC50. C. Alkaline Phosphatase Enzyme Assay:
At the end of treatment, the medium was removed from the plate. Fifty μL of assay buffer I was added to each well. The plates were shaken in a titer plate shaker for 15 min. Then 150 μL of assay buffer II was added to each well. Optical density measurements were taken at 5 min intervals for 30 min at a test wavelength of 405 nm.
For reference and test compounds, a dose response curve was generated for dose (X-axis) vs. the rate of enzyme reaction (slope) (Y-axis). Square root-transformed data was used for analysis of variance and nonlinear dose response curve fitting for both agonist and antagonist modes. Huber weighting was used to down-weight the effects of outliers. EC50 or IC50 values were calculated from the retransformed values. JMP software (SAS Institute, Inc.) was used for both one-way analysis of variance and non-linear dose response analysis in both single dose and dose response studies.
Progesterone and trimegestone were reference progestins and RU486 was the reference antiprogestin. All reference compounds were run in full dose response curves and the EC50 and IC50 values were calculated.

In turn, `C[C@@H]1COC(=O)N1c1nc(-c2ccc(Br)cc2)cs1` [Example 1, (4R)-3-[4-(4-Bromophenyl)-1,3-thiazol-2-yl]-4-methyl-1,3-oxazolidin-2-one] came in with a melting point of 197 to 199 °C.

In turn, `CCC1(CC)COC(=O)N1c1nc(-c2ccc(C#N)cc2)cs1` [Example 2, 4-[2-(4,4-Diethyl-2-oxo-1,3-oxazolidin-3-yl)-1,3-thiazol-4-yl]benzonitrile] gave a melting point of 145 to 147 °C.

Turning to `CC1(C)COC(=O)N1c1nc(-c2cccc(C#N)c2)cs1` [Example 3, 3-[2-(4,4-dimethyl-2-oxo-1,3-oxazolidin-3-yl)-1,3-thiazol-4-yl]benzonitrile], the melting point is 181 to 183 °C. `CC1(C)COC(=N)N1c1nc(-c2ccc(C#N)cc2)cs1` [Example 4, 4-[2-(2-imino-4,4-dimethyl-1,3-oxazolidin-3-yl)-1,3-thiazol-4-yl]benzonitrile] had a melting point of 158 to 161 °C. For the same molecule, the IC50 in data set [1] is 0.0534 µM.

On to `CC1(C)CO/C(=N\C#N)N1c1nc(-c2ccc(C#N)cc2)cs1` [Example 5, {(2Z)-3-[4-(4-cyanophenyl)-1,3-thiazol-2-yl]-4,4-dimethyl-1,3-oxazolidin-2-ylidene}cyanamide], for which, in data set [1], the IC50 was 0.0644 µM. Consider `CC1(C)CO/C(=N\S(C)(=O)=O)N1c1nc(-c2ccc(C#N)cc2)cs1` [Example 6, N-{(2Z)-3-[4-(4-Cyanophenyl)-1,3-thiazol-2-yl]-4,4-dimethyl-1,3-oxazolidin-2-ylidene}methanesulfonamide], for which, in data set [1] (at 3000 nM), the inhibition at 3 µM turned out to be 100%. Regarding `CC(=O)/N=C1\OCC(C)(C)N1c1nc(-c2ccc(C#N)cc2)cs1` [Example 7, N-{(2Z)-3-[4-(4-Cyanophenyl)-1,3-thiazol-2-yl]-4,4-dimethyl-1,3-oxazolidin-2-ylidene}acetamide], the IC50 in data set [1] was 0.0108 µM.

In general, melting point refers to the temperature of the solid-liquid transition. The term IC50 denotes the point on the concentration scale where inhibition reaches its midpoint. For orientation: inhibition means how much of the control response was suppressed.
